Drawing on US20240316207A1, “SHP2 INHIBITOR, PHARMACEUTICAL COMPOSITION COMPRISING SAME AND APPLICATION THEREOF” (BEIJING TIDE PHARMACEUTICAQL CO., LTD., priority 2021, published 2024), this text covers DC50 for 19 compounds.

The target in this assay is T1, SHP2 (Homo sapiens, UniProt Q06124).
T1 construct: endogenous in cells; host or cells: MV411 (MV4-11) leukemia cells
T1 sequence (Q06124 1-593): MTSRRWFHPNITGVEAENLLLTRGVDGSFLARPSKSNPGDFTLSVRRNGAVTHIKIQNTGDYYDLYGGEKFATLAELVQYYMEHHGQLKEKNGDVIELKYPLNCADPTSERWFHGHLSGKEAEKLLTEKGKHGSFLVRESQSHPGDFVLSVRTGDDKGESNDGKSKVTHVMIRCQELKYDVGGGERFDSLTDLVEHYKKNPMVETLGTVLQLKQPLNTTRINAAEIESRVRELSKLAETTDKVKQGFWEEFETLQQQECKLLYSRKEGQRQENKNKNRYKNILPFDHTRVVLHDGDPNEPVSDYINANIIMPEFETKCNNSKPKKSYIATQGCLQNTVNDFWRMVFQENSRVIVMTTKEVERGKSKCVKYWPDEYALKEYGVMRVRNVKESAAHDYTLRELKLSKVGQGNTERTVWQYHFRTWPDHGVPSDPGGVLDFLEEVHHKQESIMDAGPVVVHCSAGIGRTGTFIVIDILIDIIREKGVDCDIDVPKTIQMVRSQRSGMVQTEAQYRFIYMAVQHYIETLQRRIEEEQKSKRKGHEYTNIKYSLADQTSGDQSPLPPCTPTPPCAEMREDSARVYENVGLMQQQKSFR
In words: SHP2 degradation in MV411 cells (Western blot, SHP-2 antibody). The format is cell-based. As to conditions: MV 411 cells, 24 hours with compound, SHP2 protein level by Western blot. An excerpt: Reagent: complete DMEM medium, Gibco products. Fetal bovine serum, manufactured by ThermoFisher. Trypsin, manufactured by ThermoFisher. The SHP-2 antibody is produced by CST.
Cell line, MV 411, the blast cells of patients with bi-phenotypic B-myelomonocytic leukemia, was established by Rovera.
Measuring method: took the cells growing in the logarithmic phase, collected and suspended the cells in DMEM containing 10% fetal calf serum, gently blowed and beated the cells into single cell suspension by using a pipette, and counted the living cells under a microscope. […] Then cultured for 24 hours. All cells were collected and washed with PBS, lysed with RIPA lysate and collected into a 1.7 ml tube. […] metal bath for 5 minutes to fully denature the protein. 100V constant voltage electrophoresis after Western condensation and loading, stopped when bromophenol blue band reached the end point. The cellulose acetate membrane is transferred by a wet method, 45 minutes at a constant flow of 300-500 mA, 5% BSA is used for blocking for 1-2 hours at room temperature. Primary antibody of 1:500-1:8000 were used for incubation at 25° C. for 40 minutes and then washed three times. Secondary antibody was used for incubation for 15-40 min at room temperature. The proteins were detected using ultrasensitive ECL luminophores such as Enlight, using an X-Ray film automatic developing machine. See the statistical tables below, and FIGS. 1 and 2 for test results.
Effective Concentration of the Compound of the Invention in the Cell Line for Inhibiting SHP2
On the technique in general: In western blotting, separated proteins are transferred to a membrane and probed.
Broadly, the DC50 is the concentration giving 50% degradation. As to `CCOc1cc(O)c(C(=O)/C=C/c2ccc(NCCOCCOCCNc3cccc4c3C(=O)N(C3CCC(=O)NC3=O)C4=O)cc2Cl)cc1CN1CCNCC1` (stereo not shown) [TDC.2002], the DC50 stood at 336 nM.

Regarding `CCOc1cc(O)c(C(=O)/C=C/c2ccc(N3CCN(CCOCCOCCOc4cccc5c4C(=O)N(C4CCC(=O)N(COC(=O)C(C)(C)C)C4=O)C5=O)CC3)cc2Cl)cc1CN1CCCC(n2c(=O)[nH]c3ccccc32)C1` (stereo not shown) [TDC. 2020], the DC50 was found to be 13 nM.

On to `CCOc1cc(O)c(C(=O)/C=C/c2ccc(NCCOCCOCCCOCCNc3cccc4c3C(=O)N(C3CCC(=O)NC3=O)C4=O)cc2Cl)cc1CN1CCC=C(n2c(=O)[nH]c3ccccc32)C1` (stereo not shown) [TDC.2015], for which the DC50 was determined as 97 nM.

For `CCOc1cc(O)c(C/C=C/c2ccc(N3CCN(C(=O)CCCCCC(=O)Nc4cccc5c4C(=O)N(C4CCC(=O)NC4=O)C5=O)CC3)cc2Cl)cc1CN1CCCC(n2c(=O)[nH]c3ccccc32)C1` (stereo not shown) [TDC.2004], the 50% degradation concentration (DC50) came out at 120 nM.

For the compound `CCOc1cc(O)c(C/C=C/c2ccc(N3CCN(C(=O)CCCCCCC(=O)Nc4cccc5c4C(=O)N(C4CCC(=O)NC4=O)C5=O)CC3)cc2Cl)cc1CN1CCC=C(n2c(=O)[nH]c3ccccc32)C1` (stereo not shown) [TDC.2003], the 50% degradation concentration (DC50) came out at 52 nM.

For the compound `CCOc1cc(O)c(C(=O)/C=C/c2ccc(N3CCN(CCOCCOCCOc4cccc5c4C(=O)N(C4CCC(=O)NC4=O)C5=O)CC3)cc2Cl)cc1CN1CCC[C@@H]1CO` (stereo partly shown) [TDC.2012], the DC50 worked out at 10 nM.

Consider `CCOc1cc(O)c(C(=O)/C=C/c2ccc(N3CCN(CCOCCOCCOc4cccc5c4C(=O)N(C4CCC(=O)NC4=O)C5=O)CC3)cc2Cl)cc1CN1CCCC(n2c(=O)[nH]c3ccccc32)C1` (stereo not shown) [TDC.2009], for which the DC50 is 16 nM.

Consider `CCOc1cc(O)c(C(=O)/C=C/c2ccc(NCCOCCOCCNc3cccc4c3C(=O)N(C3CCC(=O)NC3=O)C4=O)cc2Cl)cc1CN1CCOCC1` (stereo not shown) [TDC.2006], for which the DC50 is 445 nM.

For the compound `CCOc1cc(O)c(C(=O)/C=C/c2ccc(N3CCN(CCOCCOCCOCCNc4cccc5c4C(=O)N(C4CCC(=O)NC4=O)C5=O)CC3)cc2Cl)cc1CN1CCCC(n2c(=O)[nH]c3ccccc32)C1` (stereo not shown) [TDC.2014], the 50% degradation concentration (DC50) was 102 nM.

Take `C=C/C(OCCOCCOCCN1CCN(c2ccc(/C=C/C(=O)c3cc(CN4CCC[C@H]4COC)c(OCC)cc3O)c(Cl)c2)CC1)=C1\C(=C)C(=O)N(C2CCC(=O)NC2=O)C1=O` (stereo partly shown) [TDC.2013]: the DC50 was 203 nM.

`CCOc1cc(O)c(C(=O)/C=C/c2ccc(N3CCN(CCOCCOCCOc4cccc5c4C(=O)N(C4CCC(=O)NC4=O)C5=O)CC3)cc2Cl)cc1CN1CCC[C@H]1C(N)=O` (stereo partly shown) [TDC.2011]: the DC50 is 138 nM.

Turning to `CCOc1cc(O)c(C(=O)/C=C/c2ccc(NCCOCCOCCNc3cccc4c3C(=O)N(C3CCC(=O)NC3=O)C4=O)cc2Cl)cc1CN1CCN(C)CC1` (stereo not shown) [TDC.2005], the DC50 is 321 nM.

In the case of `CCOc1cc(O)c(C(=O)/C=C/c2ccc(NCCOCCOCCOc3cccc4c3C(=O)N(C3CCC(=O)NC3=O)C4=O)cc2Cl)cc1CN1CCC[C@H]1COC` (stereo partly shown) [TDC.2017], the DC50 was determined as 183 nM.

For the compound `CCOc1cc(O)c(C(=O)/C=C/c2ccc(NCCOCCOCCNc3cccc4c3C(=O)N(C3CCC(=O)N(C(C)OC(=O)CC)C3=O)C4=O)cc2Cl)cc1CN1CCN(C)CC1` (stereo not shown) [TDC.2016], the DC50 turned out to be 356 nM.

For `CCOc1cc(O)c(C(=O)/C=C/c2ccc(NCCOCCOCCNc3cccc4c3C(=O)N(C3CCC(=O)NC3=O)C4=O)cc2Cl)cc1CN1CCC[C@H]1COC` (stereo partly shown) [TDC.2008], the DC50 came to 215 nM.

Turning to `CCOc1cc(O)c(C(=O)/C=C/c2ccc(NCCOCCOCCNc3cccc4c3C(=O)N(C3CCC(=O)NC3=O)C4=O)cc2Cl)cc1CN1CCC[C@H]1CO` (stereo partly shown) [TDC.2007], the DC50 worked out at 125 nM.

Consider `CCOc1cc(O)c(C(=O)/C=C/c2ccc(NCCOCCOCCOCCNc3cccc4c3C(=O)N(C3CCC(=O)NC3=O)C4=O)cc2Cl)cc1CN1CCC[C@H]1C(N)=O` (stereo partly shown) [TDC.2001], for which the DC50 came to 128 nM.

For `CCOc1cc(O)c(C(=O)/C=C/c2ccc(N3CCN(CCOCCOCCOc4cccc5c4C(=O)N(C4CCC(=O)NC4=O)C5=O)CC3)cc2Cl)cc1CN1CCC=C(n2c(=O)[nH]c3ccccc32)C1` (stereo not shown) [TDC.2010], the DC50 amounted to 81 nM.

For `CCOc1cc(O)c(C(=O)/C=C/c2ccc(NCCOCCOCCOCCOc3cccc4c3C(=O)N(C3CCC(=O)NC3=O)C4=O)cc2Cl)cc1CN1CCC[C@H]1C(N)=O` (stereo partly shown) [TDC.2018], the DC50 was found to be 142 nM.
